14 compounds from US9452986B2, “6-heteroaryloxy- or 6-aryloxy-quinoline-2-carboxamides and method of use” (AbbVie Inc., priority 2014, dated 2016) can be followed below.

Structures are written as SMILES.

What is called IC50 is the point on the concentration scale where inhibition reaches its midpoint.

Sequence of recombinant human Nav1.7 (Q15858 whole entry): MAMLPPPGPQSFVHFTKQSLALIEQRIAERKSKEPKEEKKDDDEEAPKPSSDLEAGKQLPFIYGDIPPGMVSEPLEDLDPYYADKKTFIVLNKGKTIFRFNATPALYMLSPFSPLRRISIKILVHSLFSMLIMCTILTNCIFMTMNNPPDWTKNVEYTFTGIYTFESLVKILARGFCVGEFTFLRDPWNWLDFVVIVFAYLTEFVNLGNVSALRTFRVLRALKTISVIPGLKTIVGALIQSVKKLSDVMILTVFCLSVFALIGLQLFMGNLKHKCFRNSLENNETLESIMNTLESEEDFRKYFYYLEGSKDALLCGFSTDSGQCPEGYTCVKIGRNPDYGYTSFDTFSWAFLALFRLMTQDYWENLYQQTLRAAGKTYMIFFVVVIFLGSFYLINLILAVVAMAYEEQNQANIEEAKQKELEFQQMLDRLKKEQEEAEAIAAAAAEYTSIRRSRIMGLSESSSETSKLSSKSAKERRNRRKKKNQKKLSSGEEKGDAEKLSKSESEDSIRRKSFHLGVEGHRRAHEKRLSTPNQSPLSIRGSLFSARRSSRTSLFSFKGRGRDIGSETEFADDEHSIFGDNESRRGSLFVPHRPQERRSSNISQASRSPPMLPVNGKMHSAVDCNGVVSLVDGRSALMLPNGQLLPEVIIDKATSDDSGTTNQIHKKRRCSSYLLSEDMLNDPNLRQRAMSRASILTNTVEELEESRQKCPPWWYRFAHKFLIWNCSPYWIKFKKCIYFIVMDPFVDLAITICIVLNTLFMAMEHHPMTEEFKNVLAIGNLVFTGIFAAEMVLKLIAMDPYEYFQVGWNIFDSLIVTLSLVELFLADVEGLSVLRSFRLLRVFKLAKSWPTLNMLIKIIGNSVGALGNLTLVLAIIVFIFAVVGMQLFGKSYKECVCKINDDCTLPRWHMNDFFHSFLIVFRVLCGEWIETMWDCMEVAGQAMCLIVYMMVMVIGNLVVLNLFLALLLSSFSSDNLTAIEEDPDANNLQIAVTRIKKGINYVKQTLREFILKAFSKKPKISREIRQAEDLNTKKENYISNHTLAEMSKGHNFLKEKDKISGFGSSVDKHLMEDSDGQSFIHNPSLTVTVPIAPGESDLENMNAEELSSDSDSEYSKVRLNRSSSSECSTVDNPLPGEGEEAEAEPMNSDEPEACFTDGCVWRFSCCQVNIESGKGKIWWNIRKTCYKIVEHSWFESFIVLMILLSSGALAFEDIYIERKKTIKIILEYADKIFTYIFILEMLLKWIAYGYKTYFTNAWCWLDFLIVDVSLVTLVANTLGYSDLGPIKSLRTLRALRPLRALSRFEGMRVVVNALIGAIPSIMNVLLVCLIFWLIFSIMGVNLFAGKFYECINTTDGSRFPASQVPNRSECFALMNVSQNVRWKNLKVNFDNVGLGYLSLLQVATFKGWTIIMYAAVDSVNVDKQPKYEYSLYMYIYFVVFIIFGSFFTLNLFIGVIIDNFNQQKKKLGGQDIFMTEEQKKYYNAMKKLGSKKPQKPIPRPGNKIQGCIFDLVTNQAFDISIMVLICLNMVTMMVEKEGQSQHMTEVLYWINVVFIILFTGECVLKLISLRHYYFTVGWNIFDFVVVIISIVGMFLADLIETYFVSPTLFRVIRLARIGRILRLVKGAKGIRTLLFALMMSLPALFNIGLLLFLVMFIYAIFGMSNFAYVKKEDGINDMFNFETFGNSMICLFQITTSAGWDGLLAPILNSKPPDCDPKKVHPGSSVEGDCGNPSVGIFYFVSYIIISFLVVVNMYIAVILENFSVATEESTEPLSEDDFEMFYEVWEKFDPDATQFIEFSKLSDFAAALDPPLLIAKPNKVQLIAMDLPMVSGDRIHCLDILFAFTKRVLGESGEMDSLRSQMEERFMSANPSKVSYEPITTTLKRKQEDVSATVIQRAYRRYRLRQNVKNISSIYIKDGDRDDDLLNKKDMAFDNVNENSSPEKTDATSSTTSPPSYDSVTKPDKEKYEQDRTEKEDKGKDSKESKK

The first test addresses recombinant human Nav1.7 (Homo sapiens (Human), UniProt Q15858). In words: FRET-based membrane potential assay, recombinant human sodium channel Nav1.7. It is filed as cell-based. The following applies: HEK293 cells stably expressing recombinant human Nav1.7; veratridine + scorpion venom depolarization; read-out: FRET-Membrane Potential Nav1.7 IC50. In a few lines:
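Channel activation used veratridine at its EC80, set by a dilution curve each experiment, together with Leiurus scorpion venom, added 3 min after compound. Membrane-potential ratio signals from FLIPR Tetra in HEPES-buffered HBSS were fitted to a four-parameter Hill equation for percent inhibition and IC50.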
In the case of `NS(=O)(=O)CCNC(=O)c1ccc2cc(Oc3ccc(C(F)(F)F)cn3)ccc2n1` [Example 317, N-(2-sulfamoylethyl)-6-{[5-(trifluoromethyl)pyridin-2-yl]oxy}quinoline-2-carboxamide], the IC50 turned out to be 3.01 µM.

As for `O=C(c1ccc2cc(Oc3ccc(C(F)(F)F)cn3)ccc2n1)N1CCC(F)CC1` [Example 318, (4-fluoropiperidin-1-yl)(6-{[5-(trifluoromethyl)pyridin-2-yl]oxy}quinolin-2-yl)methanone], the 50% inhibitory concentration (IC50) turned out to be 7.41 µM.

As to `O=C(c1ccc2cc(Oc3ccc(C(F)(F)F)cn3)ccc2n1)N1CC[C@@H](N2CCCCC2)C1` [Example 319, [(3R)-3-(piperidin-1-yl)pyrrolidin-1-yl](6-{[5-(trifluoromethyl)pyridin-2-yl]oxy}quinolin-2-yl)methanone], the IC50 turned out to be 0.285 µM.

For the compound `O=C(c1ccc2cc(Oc3nnc(C(F)(F)F)s3)ccc2n1)N1CCNCC1` [Example 320, piperazin-1-yl(6-{[5-(trifluoromethyl)-1,3,4-thiadiazol-2-yl]oxy}quinolin-2-yl)methanone], the concentration for half-maximal inhibition (IC50) worked out at 17.1 µM.

For `CC(C)NC(=O)C1CN(C(=O)c2ccc3cc(Oc4ccc(C(F)(F)F)cn4)ccc3n2)CCN1` (centres unmarked) [Example 321, N-isopropyl-4-[(6-{[5-(trifluoromethyl)pyridin-2-yl]oxy}quinolin-2-yl)carbonyl]piperazine-2-carboxamide], the IC50 is 8.07 µM.

As for `CO[C@H]1CN(C(=O)c2ccc3cc(Oc4ccc(C(F)(F)F)cn4)ccc3n2)C[C@H]1OC` [Example 324, [cis-3,4-dimethoxypyrrolidin-1-yl](6-{[5-(trifluoromethyl)pyridin-2-yl]oxy}quinolin-2-yl)methanone], the IC50 is 5.01 µM.

Take `NC(=O)[C@H]1CCCN(C(=O)c2ccc3cc(Oc4ccc(C(F)(F)F)cn4)ccc3n2)C1` [Example 325, (3S)-1-[(6-{[5-(trifluoromethyl)pyridin-2-yl]oxy}quinolin-2-yl)carbonyl]piperidine-3-carboxamide]: the half-inhibitory concentration (IC50) was 8.58 µM.

With `O=C(NC1CCOCC1)c1ccc2cc(Oc3ccc(C(F)(F)F)cn3)ccc2n1` [Example 327, N-(tetrahydro-2H-pyran-4-yl)-6-{[5-(trifluoromethyl)pyridin-2-yl]oxy}quinoline-2-carboxamide], the half-maximal inhibitory concentration (IC50) came to 0.557 µM.

In the case of `N#Cc1ccc(Oc2ccc3nc(C(=O)N4CCNCC4)ccc3c2)nc1` [Example 328, 6-{[2-(piperazin-1-ylcarbonyl)quinolin-6-yl]oxy}nicotinonitrile], the half-maximal inhibitory concentration (IC50) was greater than 20 µM.

Consider `O=C(c1ccc2cc(Oc3ccc(C(F)(F)F)cn3)ccc2n1)N1CCN2C(=O)OCC2C1` (centres unmarked) [Example 329, 7-[(6-{[5-(trifluoromethyl)pyridin-2-yl]oxy}quinolin-2-yl)carbonyl]hexahydro[1,3]oxazolo[3,4-a]pyrazin-3-one], for which the IC50 was 9.28 µM.

For `O=C(c1ccc2cc(Oc3ccc(C(F)(F)F)cn3)ccc2n1)N1CCC(F)(F)CC1` [Example 330, (4,4-difluoropiperidin-1-yl)(6-{[5-(trifluoromethyl)pyridin-2-yl]oxy}quinolin-2-yl)methanone], the 50% inhibitory concentration (IC50) was 2.95 µM.

Staying with this test, now noted: read-out: FRET-Membrane Potential Nav1.7 IC50.
On to `O=C(c1ccc2cc(Oc3ccc(C(F)(F)F)cn3)ccc2n1)N1CCC(N2CCOCC2)C1` (centres unmarked) [Example 316, [3-(morpholin-4-yl)pyrrolidin-1-yl](6-{[5-(trifluoromethyl)pyridin-2-yl]oxy}quinolin-2-yl)methanone], for which the IC50 was determined as 12 µM.

Turning to `CNC(=O)C1CN(C(=O)c2ccc3cc(Oc4ccc(C(F)(F)F)cn4)ccc3n2)CCN1` (centres unmarked) [Example 322, N-methyl-4-[(6-{[5-(trifluoromethyl)pyridin-2-yl]oxy}quinolin-2-yl)carbonyl]piperazine-2-carboxamide], the IC50 turned out to be 12 µM.

With `O=C(NCCO)c1ccc2cc(Oc3ccc(C(F)(F)F)cn3)ccc2n1` [Example 326, N-(2-hydroxyethyl)-6-{[5-(trifluoromethyl)pyridin-2-yl]oxy}quinoline-2-carboxamide], the 50% inhibitory concentration (IC50) came out at 3.15 µM.
